Measured values from PubChem BioAssay (NCI).
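Five compound concentrations were applied to cells in 96-well plates for 48 hours; endpoints were derived by simple linear interpolation of the resulting dose-response curve. TGI marks complete inhibition of growth.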 Where a SMILES comes first, the peptide text is derived from it. The star is where a group is joined. OSu = O=C1CCC(=O)N1O*

Experiments:
Assay in all cases: NCI-60 cell line screen, 48 h
ACHN renal = system: ACHN renal
BT-549 breast = system: BT-549 breast
CAKI-1 renal = system: CAKI-1 renal
COLO 205 colon = system: COLO 205 colon
HCT-116 colon = system: HCT-116 colon
HCT-15 colon = system: HCT-15 colon
HS 578T breast = system: HS 578T breast
K-562 leukemia = system: K-562 leukemia
MCF7 breast = system: MCF7 breast
OVCAR-3 ovarian = system: OVCAR-3 ovarian
RXF 393 renal = system: RXF 393 renal
SF-539 CNS = system: SF-539 CNS
SK-MEL-2 melanoma = system: SK-MEL-2 melanoma
SNB-19 CNS = system: SNB-19 CNS
SNB-75 CNS = system: SNB-75 CNS
SW-620 colon = system: SW-620 colon
T-47D breast = system: T-47D breast
U251 CNS = system: U251 CNS
UACC-257 melanoma = system: UACC-257 melanoma
HT29 colon = system: HT29 colon

| SMILES | TGI (ACHN renal) | TGI (BT-549 breast) | TGI (CAKI-1 renal) | TGI (COLO 205 colon) | TGI (HCT-116 colon) | TGI (HCT-15 colon) | TGI (HS 578T breast) | TGI (K-562 leukemia) | TGI (MCF7 breast) | TGI (OVCAR-3 ovarian) | TGI (RXF 393 renal) | TGI (SF-539 CNS) | TGI (SK-MEL-2 melanoma) | TGI (SNB-19 CNS) | TGI (SNB-75 CNS) | TGI (SW-620 colon) | TGI (T-47D breast) | TGI (U251 CNS) | TGI (UACC-257 melanoma) | TGI (HT29 colon) |
| --- | --- | --- | --- | --- | --- | --- | --- | --- | --- | --- | --- | --- | --- | --- | --- | --- | --- | --- | --- | --- |
| CCOC(=O)c1nc2cc(C(F)(F)F)ccc2nc1Oc1ccc(F)cc1 | > 100 µM | > 100 µM | > 100 µM | > 100 µM | 64.2 µM | > 100 µM | > 100 µM | > 100 µM | > 100 µM | > 100 µM | > 100 µM | > 100 µM | > 100 µM | > 100 µM | > 100 µM | > 100 µM | > 100 µM | > 100 µM | > 100 µM | – |
| COc1ccc2oc(C(=O)N3CC(CCl)c4ccc(N)cc43)cc2c1 (stereo not given) | – | 1.85 µM | 0.648 µM | 1.28 µM | 0.576 µM | 3.18 µM | 3.53 µM | > 63.4 µM | 3.02 µM | > 100 µM | 0.532 µM | 5.66 µM | 0.72 µM | 19.5 µM | 3.23 µM | 31.5 µM | 3.87 µM | 15.2 µM | 6.57 µM | 1.44 µM |
| CCOC1CCN(C(=O)c2ccccc2)O1 (stereo not given) | > 10 µM | > 10 µM | > 10 µM | > 10 µM | > 10 µM | > 10 µM | > 10 µM | > 10 µM | > 10 µM | > 10 µM | > 10 µM | > 10 µM | > 10 µM | > 10 µM | > 10 µM | > 10 µM | > 10 µM | – | > 10 µM | > 10 µM |
| COC(=O)C1(O)C(c2ccccc2)NC2(C)CCCC21 (stereo not given) | > 100 µM | > 100 µM | > 100 µM | > 100 µM | > 100 µM | > 100 µM | > 100 µM | – | > 100 µM | – | > 100 µM | > 100 µM | > 100 µM | > 100 µM | > 100 µM | > 100 µM | > 100 µM | > 100 µM | > 100 µM | – |
| C[n+]1ccccc1/C1=c2\cc/c([nH]2)=C(\c2cccc[n+]2C)C2=N/C(=C(/c3cccc[n+]3C)C3C=CC(N3)/C(c3cccc[n+]3C)=C3/C=CC1=N3)C=C2 | > 100 µM | > 100 µM | > 100 µM | > 100 µM | > 100 µM | > 100 µM | > 100 µM | > 100 µM | > 100 µM | > 100 µM | > 100 µM | > 100 µM | > 100 µM | > 100 µM | – | > 100 µM | > 100 µM | > 100 µM | > 100 µM | > 100 µM |
| C=CCCC(=O)C(=[N+]=[N-])C(=O)CCC(=O)c1ccccc1 | > 10 µM | > 10 µM | – | – | – | > 10 µM | > 10 µM | > 10 µM | > 10 µM | > 10 µM | > 10 µM | > 10 µM | > 10 µM | > 10 µM | > 10 µM | > 10 µM | > 10 µM | > 10 µM | > 10 µM | > 10 µM |
| NCCCCC(NC(=O)C(N)Cc1ccc(O)cc1)C(=O)NC(Cc1ccc(O)cc1)C(=O)NC(CCCCN)C(=O)ON1C(=O)CCC1=O (stereo not given) (H-YKYK-OSu; configuration not given here) | > 100 µM | > 100 µM | – | > 100 µM | > 100 µM | > 100 µM | > 100 µM | > 100 µM | > 100 µM | – | > 100 µM | – | > 100 µM | > 100 µM | > 100 µM | > 100 µM | > 100 µM | > 100 µM | > 100 µM | > 100 µM |
| COc1cc(S(=O)(=O)Nc2ccc(-c3csc(N4C(=O)C(Cl)C4c4cccs4)n3)cc2)ccc1Cl (stereo not given) | > 100 µM | > 100 µM | > 100 µM | > 100 µM | > 100 µM | > 100 µM | > 100 µM | > 100 µM | > 100 µM | > 100 µM | 86.4 µM | > 100 µM | > 100 µM | > 100 µM | > 100 µM | > 100 µM | > 100 µM | – | > 100 µM | > 100 µM |
| Cc1cc2nnc(C(N)=O)c(N)c2cc1C | > 100 µM | > 100 µM | > 100 µM | > 100 µM | > 100 µM | > 100 µM | > 100 µM | > 100 µM | > 100 µM | > 100 µM | – | > 100 µM | > 100 µM | > 100 µM | 39.6 µM | > 100 µM | > 100 µM | > 100 µM | > 100 µM | > 100 µM |
| CC(=O)NC1(C)C(C)C2CC1C(C)C2(C)C (stereo not given) | > 100 µM | > 100 µM | > 100 µM | > 100 µM | > 100 µM | – | > 100 µM | > 100 µM | > 100 µM | > 100 µM | > 100 µM | > 100 µM | – | > 100 µM | > 100 µM | > 100 µM | > 100 µM | > 100 µM | > 100 µM | > 100 µM |
| O=C1C(Cl)=C(NCCF)C(=O)c2ncccc21 | 5.22 µM | 2.99 µM | – | – | 3.51 µM | 4.87 µM | 4 µM | 2.82 µM | 3.54 µM | 5.45 µM | 3.24 µM | 3.23 µM | 4.23 µM | 2.99 µM | 2.6 µM | 3.35 µM | 4.25 µM | 2.8 µM | 3.03 µM | 7.29 µM |
| COC(=O)[C@H](Cc1c[nH]c2ccccc12)NC(=O)c1ccccc1I | 30.8 µM | > 100 µM | 50.6 µM | 33.3 µM | > 100 µM | > 100 µM | 29.8 µM | > 100 µM | > 100 µM | 33.1 µM | 39.8 µM | – | 45.8 µM | > 100 µM | 32.4 µM | > 100 µM | 76.2 µM | > 100 µM | 35.1 µM | > 100 µM |
